Source: PubChem BioAssay (NCI)
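Grown in 96-well plates, cells were treated for 48 hours with each compound at five concentrations. Insufficient inhibition: endpoint recorded as highest concentration tested. Abbreviation: GI50, concentration required for 50% inhibition of growth. Definition used: TGI = concentration required for complete inhibition of growth.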

How the values were obtained:
Experiment in all cases: NCI tumour cell line growth inhibition, 48 h
EKVX NSCLC = system: EKVX NSCLC
HS 578T breast = system: HS 578T breast
BT-549 breast = system: BT-549 breast
MDA-MB-231 breast = system: MDA-MB-231 breast
SF-295 CNS = system: SF-295 CNS
PC-3 prostate = system: PC-3 prostate
HOP-92 NSCLC = system: HOP-92 NSCLC
SNB-19 CNS = system: SNB-19 CNS
A498 renal = system: A498 renal
HCT-116 colon = system: HCT-116 colon
HOP-62 NSCLC = system: HOP-62 NSCLC
UACC-62 melanoma = system: UACC-62 melanoma
NCI-H23 lung = system: NCI-H23 lung
KM12 colon = system: KM12 colon
SK-OV-3 ovarian = system: SK-OV-3 ovarian
MALME-3M melanoma = system: MALME-3M melanoma
A549 NSCLC = system: A549 NSCLC
SN12C renal = system: SN12C renal
SK-MEL-28 melanoma = system: SK-MEL-28 melanoma
IGROV1 ovarian = system: IGROV1 ovarian
MDA-MB-435 = system: MDA-MB-435
HCC-2998 colon = system: HCC-2998 colon
RXF 393 renal = system: RXF 393 renal
HCT-15 colon = system: HCT-15 colon
786-0 renal = system: 786-0 renal
HL-60(TB) leukemia = system: HL-60(TB) leukemia
TK-10 renal = system: TK-10 renal
ACHN renal = system: ACHN renal
NCI-H522 lung = system: NCI-H522 lung
SW-620 colon = system: SW-620 colon
SR leukemia = system: SR leukemia
UO-31 renal = system: UO-31 renal
MCF7 breast = system: MCF7 breast
SF-268 CNS = system: SF-268 CNS
M14 melanoma = system: M14 melanoma
OVCAR-8 ovarian = system: OVCAR-8 ovarian
SNB-75 CNS = system: SNB-75 CNS
K-562 leukemia = system: K-562 leukemia
NCI-H226 lung = system: NCI-H226 lung
UACC-257 melanoma = system: UACC-257 melanoma
CAKI-1 renal = system: CAKI-1 renal
DU-145 prostate = system: DU-145 prostate
SK-MEL-5 melanoma = system: SK-MEL-5 melanoma
MOLT-4 leukemia = system: MOLT-4 leukemia
OVCAR-3 ovarian = system: OVCAR-3 ovarian
NCI/ADR-RES ovarian = system: NCI/ADR-RES ovarian
NCI-H460 lung = system: NCI-H460 lung
LOX IMVI melanoma = system: LOX IMVI melanoma
COLO 205 colon = system: COLO 205 colon
OVCAR-5 ovarian = system: OVCAR-5 ovarian
T-47D breast = system: T-47D breast
U251 CNS = system: U251 CNS
OVCAR-4 ovarian = system: OVCAR-4 ovarian
SF-539 CNS = system: SF-539 CNS
CCRF-CEM leukemia = system: CCRF-CEM leukemia
SK-MEL-2 melanoma = system: SK-MEL-2 melanoma
RPMI-8226 leukemia = system: RPMI-8226 leukemia
HT29 colon = system: HT29 colon

Which results are given for `c1ccc(-c2nc([P+](c3ccccc3)(c3ccccc3)c3ccccc3)c(N3CCOCC3)o2)cc1`?
GI50 (EKVX NSCLC): 2310 nM; TGI (EKVX NSCLC): 29500 nM; GI50 (HS 578T breast): 1620 nM; TGI (HS 578T breast): 11700 nM; GI50 (BT-549 breast): 523 nM; TGI (BT-549 breast): 6770 nM; GI50 (MDA-MB-231 breast): 920 nM; TGI (MDA-MB-231 breast): 7120 nM; GI50 (SF-295 CNS): 2090 nM; TGI (SF-295 CNS): 5540 nM; GI50 (PC-3 prostate): 450 nM; TGI (PC-3 prostate): 5770 nM; GI50 (HOP-92 NSCLC): 446 nM; TGI (HOP-92 NSCLC): 3200 nM; GI50 (SNB-19 CNS): 483 nM; TGI (SNB-19 CNS): 15000 nM; GI50 (A498 renal): 1710 nM; TGI (A498 renal): 5580 nM; GI50 (HCT-116 colon): 1040 nM; TGI (HCT-116 colon): 10700 nM; GI50 (HOP-62 NSCLC): 2110 nM; TGI (HOP-62 NSCLC): 10600 nM; GI50 (UACC-62 melanoma): 589 nM; TGI (UACC-62 melanoma): 2940 nM; GI50 (NCI-H23 lung): 1910 nM; TGI (NCI-H23 lung): 7240 nM; GI50 (KM12 colon): 385 nM; TGI (KM12 colon): 2040 nM; GI50 (SK-OV-3 ovarian): 1630 nM; TGI (SK-OV-3 ovarian): 6340 nM; GI50 (MALME-3M melanoma): 529 nM; TGI (MALME-3M melanoma): 6130 nM; GI50 (A549 NSCLC): 2830 nM; TGI (A549 NSCLC): 48600 nM; GI50 (SN12C renal): 934 nM; TGI (SN12C renal): 9150 nM; GI50 (SK-MEL-28 melanoma): 704 nM; TGI (SK-MEL-28 melanoma): 13100 nM; GI50 (IGROV1 ovarian): 557 nM; TGI (IGROV1 ovarian): 8350 nM; GI50 (MDA-MB-435): 445 nM; TGI (MDA-MB-435): 4550 nM; GI50 (HCC-2998 colon): 1040 nM; TGI (HCC-2998 colon): 12400 nM; GI50 (RXF 393 renal): 1590 nM; TGI (RXF 393 renal): 7420 nM; GI50 (HCT-15 colon): 9310 nM; TGI (HCT-15 colon): 58800 nM; GI50 (786-0 renal): 3920 nM; TGI (786-0 renal): 28800 nM; GI50 (HL-60(TB) leukemia): 322 nM; TGI (HL-60(TB) leukemia): 1600 nM; GI50 (TK-10 renal): 2750 nM; TGI (TK-10 renal): 15000 nM; GI50 (ACHN renal): 3070 nM; TGI (ACHN renal): 12700 nM; GI50 (NCI-H522 lung): 665 nM; TGI (NCI-H522 lung): 5430 nM; GI50 (SW-620 colon): 926 nM; TGI (SW-620 colon): 20100 nM; GI50 (SR leukemia): 655 nM; TGI (SR leukemia): 20000 nM; GI50 (UO-31 renal): 6370 nM; TGI (UO-31 renal): 25700 nM; GI50 (MCF7 breast): 388 nM; TGI (MCF7 breast): 4150 nM; GI50 (SF-268 CNS): 844 nM; TGI (SF-268 CNS): 11100 nM; GI50 (M14 melanoma): 1560 nM; TGI (M14 melanoma): 10900 nM; GI50 (OVCAR-8 ovarian): 1180 nM; TGI (OVCAR-8 ovarian): 10200 nM; GI50 (SNB-75 CNS): 393 nM; TGI (SNB-75 CNS): 2730 nM; GI50 (K-562 leukemia): 439 nM; TGI (K-562 leukemia): > 74800 nM; GI50 (NCI-H226 lung): 1980 nM; TGI (NCI-H226 lung): 8500 nM; GI50 (UACC-257 melanoma): 406 nM; TGI (UACC-257 melanoma): 3480 nM; GI50 (CAKI-1 renal): 2260 nM; TGI (CAKI-1 renal): 6470 nM; GI50 (DU-145 prostate): 1180 nM; TGI (DU-145 prostate): 12900 nM; GI50 (SK-MEL-5 melanoma): 654 nM; TGI (SK-MEL-5 melanoma): 1960 nM; GI50 (MOLT-4 leukemia): 2260 nM; TGI (MOLT-4 leukemia): 14800 nM; GI50 (OVCAR-3 ovarian): 474 nM; TGI (OVCAR-3 ovarian): 4280 nM; GI50 (NCI/ADR-RES ovarian): > 76400 nM; TGI (NCI/ADR-RES ovarian): > 100000 nM; GI50 (NCI-H460 lung): 2480 nM; TGI (NCI-H460 lung): 12000 nM; GI50 (LOX IMVI melanoma): 1490 nM; TGI (LOX IMVI melanoma): 3900 nM; GI50 (COLO 205 colon): 477 nM; TGI (COLO 205 colon): 2070 nM; GI50 (OVCAR-5 ovarian): 2450 nM; TGI (OVCAR-5 ovarian): 12800 nM; GI50 (T-47D breast): 358 nM; TGI (T-47D breast): 6810 nM; GI50 (U251 CNS): 483 nM; TGI (U251 CNS): 11900 nM; GI50 (OVCAR-4 ovarian): 424 nM; TGI (OVCAR-4 ovarian): 6270 nM; GI50 (SF-539 CNS): 2190 nM; TGI (SF-539 CNS): 12200 nM; GI50 (CCRF-CEM leukemia): 1130 nM; TGI (CCRF-CEM leukemia): 36600 nM; GI50 (SK-MEL-2 melanoma): 880 nM; TGI (SK-MEL-2 melanoma): 4030 nM; GI50 (RPMI-8226 leukemia): 295 nM; TGI (RPMI-8226 leukemia): 1430 nM; GI50 (HT29 colon): 715 nM; TGI (HT29 colon): > 33300 nM
